# Experimental data: US20070071792A1, “In VIVO formed matrices including natural biodegradale polysaccharides and ophthalmic uses thereof” (priority 2005, published 2007)
# Assays:
# [1] = test system: PC-12 cells; assay: Cell viability within polyalditol-acrylate redox components (Live/Dead Viability/Cytotoxicity Kit); settings: 15 min
# Method: Cell suspensions were prepared as follows: PC-12 cells (ATCC; passage 5; 75% confluency) were harvested from a T-75 flask using Trypsin-EDTA for 2 minutes. The cells were placed in a 15 mL polyethylene conical (VWR) and centrifuged in F-12k media without serum for 4 minutes at 500 rpm. The cells were counted using a hemocytometer, centrifuged for 4 minutes at 500 rpm, and resuspended at 600,000 cells/mL in sterile PBS.
# In order to determine the effect of individual components of the matrix forming compositions on cell viability, solutions A-G were independently mixed with PC-12 cells. 50 uL of cell suspension was added to 350 uL of solutions A-G (Table 7). After a 15 minute incubation, cell viability was assessed using a Live/Dead™ Viability/Cytotoxicity Kit (cat.# L3224; Molecular Probes, Eugene, Oreg.).
# The effect of a formed matrix on cell viability was also tested. To form the PD-A matrix, solution #1 (200 mg PD-A, 10 uL TEMED, 20 uL 1N HCl, 470 uL PBS) was added in the amount of 200 uL to a 1.6 ml eppendorf (VWR). Solution #2 (400 mg PD-A, 10 mg Potassium persulfate, 75K PC-12 cells, 500 uL PBS) was added in the amount of 200 uL to solution #1 in the eppendorf and mixed for 10 seconds. After a 15 minute incubation, cell viability was assessed using the Live/Dead™ Viability/Cytotoxicity Kit.
smiles,measurement,setting,value
N.N.O=S(=O)(O)OOS(=O)(=O)O [Ammonium persulfate],Cell viability (%),[1]; 10 mg/ml in PBS,90%
same,Cell viability (%),[1]; 120 mg/ml in PBS,90%
O=S(=O)([O-])OOS(=O)(=O)[O-].[K+].[K+] [Potassium persulfate],Cell viability (%),[1]; 10 mg/ml in PBS,90%
O=C(O)/C=C\C(=O)NCCCCCC(=O)O,melting point,,160 to 165 °C
O=S(=O)([O-])OOS(=O)(=O)[O-].[Na+].[Na+] [Sodium persulfate],Cell viability (%),[1]; 5 mg/ml in PBS,90%
